Measurements published in ChEMBL document CHEMBL5346920, “Development of the "hidden" multi-target-directed ligands by AChE/BuChE for the treatment of Alzheimer's disease” (Eur J Med Chem, 2023).
The source made the active and inactive calls. The rule behind the calls is not given here.

Key:
Danio rerio [1] = species on record: Danio rerio; experiment: Neuroprotective activity against AlCl3-induced Alzheimer's disease zebra fish model assessed as distance velocity at 0.0195 ug/ml treated for 24 hrs and measured after 24 hrs under dark environment (reference value: 10.4 cm/min); type: functional; settings: dose 0.0195 µg/ml; time 48 hrs
Danio rerio [2] = species on record: Danio rerio; experiment: Neuroprotective activity against AlCl3-induced Alzheimer's disease zebra fish model assessed as distance velocity at 0.0195 ug/ml treated for 24 hrs and measured after 24 hrs under light environment (reference value: 7.7 cm/min); type: functional; settings: dose 0.0195 µg/ml; time 48 hrs
[3] = Permeability of the compound at 100 ug/ml incubated for 18 hrs by PAMPA assay; type: ADME; settings: dose 100 µg/ml, read-out: permeability
[4] = target: Cholinesterase (Equus caballus) (UniProt P81908); experiment: Reversible inhibition of equine serum BuChE assessed as enzyme activity using butyrylthiocholine chloride as substrate measured after dilution to 0.1XIC50 for 240 mins by Ellman's method; type: cell-free; set-up: scale not given: the % may be the effect or the level left
Cholinesterase (Equus caballus), sequence (P81908 whole entry): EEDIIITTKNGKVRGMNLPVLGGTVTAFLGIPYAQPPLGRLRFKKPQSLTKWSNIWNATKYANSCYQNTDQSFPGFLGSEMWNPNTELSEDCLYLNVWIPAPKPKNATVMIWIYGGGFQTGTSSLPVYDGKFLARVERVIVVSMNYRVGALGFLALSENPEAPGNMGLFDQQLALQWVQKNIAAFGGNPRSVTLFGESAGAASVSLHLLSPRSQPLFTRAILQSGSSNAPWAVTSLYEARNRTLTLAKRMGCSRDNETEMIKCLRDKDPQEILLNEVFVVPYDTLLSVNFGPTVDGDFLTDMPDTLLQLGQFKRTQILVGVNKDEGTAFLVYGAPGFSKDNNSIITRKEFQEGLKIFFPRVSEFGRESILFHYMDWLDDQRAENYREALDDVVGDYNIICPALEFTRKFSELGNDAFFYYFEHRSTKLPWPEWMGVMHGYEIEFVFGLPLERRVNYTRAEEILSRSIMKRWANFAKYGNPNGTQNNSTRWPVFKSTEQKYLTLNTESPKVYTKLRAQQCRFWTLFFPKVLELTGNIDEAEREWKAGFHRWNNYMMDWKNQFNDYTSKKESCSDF

Danio rerio [5] = species on record: Danio rerio; experiment: Antialzheimer activity against AlCl3-induced Alzheimer's disease zebra fish model assessed as total distance moved at 0.078 ug/ml treated for 24 hrs and measured after 24 hrs under alternating light dark stimuli conditions (reference value: 543 cm); type: functional; settings: dose 0.078 µg/ml; time 48 hrs
Danio rerio [6] = species on record: Danio rerio; experiment: Antialzheimer activity against AlCl3-induced Alzheimer's disease zebra fish model assessed as total distance moved at 0.0195 ug/ml treated for 24 hrs and measured after 24 hrs under alternating light dark stimuli conditions (reference value: 543 cm); type: functional; settings: dose 0.0195 µg/ml; time 48 hrs
Danio rerio [7] = species on record: Danio rerio; experiment: Neuroprotective activity against AlCl3-induced Alzheimer's disease zebra fish model assessed as increase in ACh content at 0.0049 to 0.078 ug/ml treated for 24 hrs and measured after 24 hrs; type: functional, organism-based; settings: dose 0.0049-0.078 µg/ml, time 48.0 hrs
[8] = target: Cholinesterase (Equus caballus) (UniProt P81908); experiment: Reversible inhibition of equine serum BuChE assessed as enzyme activity using butyrylthiocholine chloride as substrate measured after dilution to 0.1XIC50 by Ellman's method; type: cell-free; set-up: scale not given: the % may be the effect or the level left
Danio rerio [9] = species on record: Danio rerio; experiment: Antialzheimer activity against AlCl3-induced Alzheimer's disease zebra fish model assessed as total distance moved at 0.0049 ug/ml treated for 24 hrs and measured after 24 hrs measured under light environment (reference value: 230 cm); type: functional; settings: dose 0.0049 µg/ml; time 48 hrs
[10] = Metal chelating activity assessed as compound-Fe2+ complex formation at 37.5 uM incubated for 30 mins in presence of FeSO4 by UV-Vis spectrometry
Danio rerio [11] = species on record: Danio rerio; experiment: Antialzheimer activity against AlCl3-induced Alzheimer's disease zebra fish model assessed as total distance moved at 0.0195 ug/ml treated for 24 hrs and measured after 24 hrs under light environment (reference value: 230 cm); type: functional; settings: dose 0.0195 µg/ml; time 48 hrs
[12] = Selectivity index, ratio of IC50 for inhibition of electric eel AChE to IC50 for inhibition of equine serum BuChE
[13] = Stability of the compound in blank gastric juice assessed as parent compound remaining at 1 mg/ml measured after 8 hrs by UPLC-MS/MS analysis; type: ADME; settings: read-out: Stability
BV-2 = experiment: Cytotoxicity against mouse BV-2 cells assessed as reduction in cell viability at 10 uM by CCK8 assay; type: toxicity, cell-based; settings: bv-2, 10 µM
Acetylcholinesterase = Acetylcholinesterase (Electrophorus electricus, UniProt O42275); experiment: Drug metabolism assessed as electric eel AChE-mediated 3-(4-fluorophenyl)-1-(2-hydroxyphenyl)prop-2-en-1-one formation treated with 0.25U AChE for 9 mins by HPLC analysis; type: ADME; settings: 0.15 h
Acetylcholinesterase, sequence (O42275 whole entry): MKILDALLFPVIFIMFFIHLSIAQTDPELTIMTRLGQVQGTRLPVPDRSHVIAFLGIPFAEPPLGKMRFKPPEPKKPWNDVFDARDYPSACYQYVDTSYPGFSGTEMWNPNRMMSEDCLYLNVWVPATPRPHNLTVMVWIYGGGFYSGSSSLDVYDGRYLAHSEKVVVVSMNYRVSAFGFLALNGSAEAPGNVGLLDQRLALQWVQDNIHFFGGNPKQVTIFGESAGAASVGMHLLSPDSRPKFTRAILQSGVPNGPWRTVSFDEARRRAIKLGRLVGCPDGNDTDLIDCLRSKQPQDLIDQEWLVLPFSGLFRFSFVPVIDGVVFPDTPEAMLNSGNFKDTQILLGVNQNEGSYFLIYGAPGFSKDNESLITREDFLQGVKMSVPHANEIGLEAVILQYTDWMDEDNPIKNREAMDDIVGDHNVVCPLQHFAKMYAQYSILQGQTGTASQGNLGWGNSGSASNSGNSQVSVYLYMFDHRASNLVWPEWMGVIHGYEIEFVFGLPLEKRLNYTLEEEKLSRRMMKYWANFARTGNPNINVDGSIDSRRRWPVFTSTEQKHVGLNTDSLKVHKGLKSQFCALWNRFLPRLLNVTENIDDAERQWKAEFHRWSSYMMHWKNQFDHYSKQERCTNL

PC-12 = experiment: Neuroprotective activity against Amyloid beta(25 to 35)-induced cell injury in rat PC12 cells assessed as cell viability at 10 uM pretreated for 2 hrs followed by incubation with Abeta(25 to 35) for 24 hrs by CCK-8 assay (reference value: 41 to 58.6%); type: functional; settings: time 26 hrs, read-out: Activity
Danio rerio [14] = species on record: Danio rerio; experiment: Neuroprotective activity against AlCl3-induced Alzheimer's disease zebra fish model assessed as distance velocity at 0.078 ug/ml treated for 24 hrs and measured after 24 hrs under light environment (reference value: 7.7 cm/min); type: functional; settings: dose 0.078 µg/ml; time 48 hrs

## CCN(C)C(=O)Oc1ccccc1C(=O)/C=C/c1ccc(F)cc1
Danio rerio [1]
  Activity: 19.2 cm/min
Danio rerio [2]
  Activity: 11.5 cm/min
[3]
  Papp at 18 h, 100 ug/ml: 16.8 ×10⁻⁶ cm/s
[4]
  Activity: 93.3%
Danio rerio [5]
  Activity: 763 cm
Danio rerio [6]
  Activity: 922 cm
Danio rerio [7]
  Activity: Active
[8]
  Activity: 52.6%
Danio rerio [9]
  Activity: 373 cm
[10]
  Activity: inactive
Danio rerio [11]
  Activity: 344 cm
[12]
  Ratio IC50: 0.43
[13]
  remaining at 8 h, 1 mg/ml: 103%
BV-2
  Activity: Non-Toxic
Acetylcholinesterase
  Km: 85.3 µM
PC-12
  viability at 10 µM: 75%
Danio rerio [14]
  Activity: 7.5 cm/min
